Experimental data from patent US7192953B2, “Antibacterial agents” (Vernalis (Oxford) Limited, priority 2002, dated 2007).
≈ marks a conversion by molar mass, not a printed value.

Key:
Type in all cases: cell-based
[1] = tested on: S. pneumoniae; experiment: MIC by agar plate dilution against clinical isolates of S. pneumoniae; conditions: 6 strains of S. pneumoniae (clinical isolates), 18 to 24 hr, 35° C; for MIC: Streptococcus pneumoniae, read-out: MIC or MIC range, S. pneumoniae
Method: (§1) Minimal Inhibitory concentrations (MIC) of inhibitors against clinical isolates of S. pneumoniae, H. influenzae and M. catarrhalis obtained from the Public Health and Clinical Microbiology Laboratory, Addenbrooke's Hospital, Hills Road, Cambridge CB2 2QW, UK, were determined by a standard agar plate dilution method following recommended in British Society for Antimicrobial Chemotherapy Working Party. 1991. “A guide to sensitivity testing British Society for Antimicrobial Chemotherapy, London, United Kingdom”. Briefly Iso-Sensitest agar (pH 7.2: Oxoid, United Kingdom) was employed supplemented with 5% horse blood (Oxoid) and 20 μg of NAD (Sigma) per ml to support growth of fastidious bacteria. The inoculum used was approximately 10^4 colony forming units of each isolate contained in a volume of 1 μl. Plates were incubated 18 to 24 hr in air, or for fastidious bacteria an atmosphere enriched with 4–6% carbon dioxide at 35° C. The MIC was determined as the lowest concentration of an antimicrobial tested that inhibited growth of the inoculum, disregarding a single persisting colony or faint haze caused by the inoculation.
(§2) The compounds of the Examples were are antibacterially active in the above assays, The following table states the MICs or MIC ranges of the tested compounds against 6 strains of S. pneumoniae, 4 strains of H. influenzae and 3 strains of M. catarrhalis.

[2] = tested on: H. influenzae; experiment: MIC by agar plate dilution against clinical isolates of H. influenzae; conditions: 4 strains of H. influenzae (clinical isolates), 18 to 24 hr, 35° C; for MIC: Haemophilus influenzae, read-out: MIC or MIC range, H. Influenzae
Method: as §1, §2

[3] = tested on: M. catarrhalis; experiment: MIC by agar plate dilution against clinical isolates of M. catarrhalis; conditions: 3 strains of M. catarrhalis (clinical isolates), 18 to 24 hr, 35° C; for MIC: Moraxella catarrhalis, read-out: MIC or MIC range, M. catarrhalis
Method: as §1, §2

Row | Compound | MIC [1] [µg/mL] | MIC [2] [µg/mL] | MIC [3] [µg/mL] | MIC or MIC range, S. pneumoniae [1] [µg/mL] | MIC or MIC range, M. catarrhalis [3] [µg/mL] | MIC or MIC range, H. Influenzae [2] [µg/mL]
1 | COCC(=O)N1CCCCN1C(=O)[C@H](CC1CCCC1)CN(O)C=O [Example 2, N-{(2R)-Cyclopentylmethyl-3-[2-(2-methoxyacetyl)tetrahydropyridazin-1-yl]-3-oxo-propyl}-N-hydroxyformamide] | 1 to 8 (≈ 2.81 to 22.5 µM) | 0.25 to 8 (≈ 0.703 to 22.5 µM) | 0.25 (≈ 0.703 µM) |  |  | 
2 | O=CN(O)C[C@@H](CC1CCCC1)C(=O)N1CCCCN1C(=O)C1CCCCC1 [Example 6, N-{(2R)-Cyclopentylmethyl-3-[2-Cyclohexanecarbonyl-tetrahydropyridazin-1-yl]-3-oxo-propyl}-N-hydroxyformamide] | 0.5 to 2 (≈ 1.27 to 5.08 µM) | 4 to 8 (≈ 10.2 to 20.3 µM) | 0.06 (≈ 0.152 µM) |  |  | 
3 | O=CN(O)C[C@@H](CC1CCCC1)C(=O)N1CCCCN1C(=O)c1ccc2c(c1)OCO2 [Example 8, N-{(2R)-Cyclopentylmethyl-3-[2-(benzo[1,3]dioxole-5carbonyl)-tetrahydropyridazin-1-yl]-3-oxo-propyl}-N-hydroxyformamide] | 0.5 to 4 (≈ 1.16 to 9.27 µM) | 1 to 8 (≈ 2.32 to 18.5 µM) | 0.5 (≈ 1.16 µM) |  |  | 
4 | O=CN(O)C[C@@H](CC1CCCC1)C(=O)N1CCCCN1C(=O)c1ccoc1 [Example 9, N-{(2R)-Cyclopentylmethyl-3-[2-(furan-3-Carbonyl)-tetrahydropyridazin-1-yl]-3-oxo-propyl}-N-hydroxyformamide] | 0.5 to 2 (≈ 1.32 to 5.3 µM) | 0.125 to 8 (≈ 0.331 to 21.2 µM) | < 0.93 |  |  | 
5 | O=CN(O)C[C@@H](CC1CCCC1)C(=O)N1CCCCN1C(=O)Cc1ccccc1 [Example 11, N-{(2R)-Cyclopentylmethyl-3-[2-phenylacetyl-tetrahydropyridazin-1-yl]-3-oxo-propyl}-N-hydroxyformamide] | 0.5 to 4 (≈ 1.25 to 9.96 µM) | 0.25 to 2 (≈ 0.623 to 4.98 µM) | 0.25 (≈ 0.623 µM) |  |  | 
6 | O=CN(O)C[C@@H](CC1CCCC1)C(=O)N1CCCCN1C(=O)c1ccc(N2CCOCC2)nc1 [Example 12, N-{(2R)-Cyclopentylmethyl-3-[2-(6-morpholin-4-yl-pyridine-3-Carbonyl)-tetrahydropyridazin-1-yl]-3-oxo-propyl}N-hydroxyformamide] | 2 to 16 (≈ 4.22 to 33.8 µM) | 16 to 32 (≈ 33.8 to 67.6 µM) | 1 (≈ 2.11 µM) |  |  | 
7 | O=CN(O)C[C@@H](CC1CCCC1)C(=O)N1CCCCN1C(=O)Nc1cc(C(F)(F)F)cc(C(F)(F)F)c1 [Example 13, 2-[(2R)-Cyclopentylmethyl-3-(formylhydroxyamino)-propionyl]-tetrahydropyridazine-1-Carboxylic acid (3,5-bis-(trifluoromethyl)phenyl)amide] |  |  |  | 8 to 16 | 2 (≈ 3.71 µM) | 
8 | O=CN(O)C[C@@H](CC1CCCC1)C(=O)N1CCCCN1C(=O)Nc1ccccc1 [Example 14, 2-[(2R)-Cyclopentylmethyl-3-(formylhydroxyamino)-propionyl]-tetrahydropyridazine-1-Carboxylic acid phenylamide] | 2 to 4 (≈ 4.97 to 9.94 µM) | 0.125 to 4 (≈ 0.311 to 9.94 µM) | < 0.125 |  |  | 
9 | COc1cccc(NC(=O)N2CCCCN2C(=O)[C@H](CC2CCCC2)CN(O)C=O)c1 [Example 15, 2-[(2R)-Cyclopentylmethyl-3-(formylhydroxyamino)-propionyl]-tetrahydropyridazine-1-Carboxylic acid (3-methoxyphenyl)amide] | 2 to 4 (≈ 4.62 to 9.25 µM) | 0.125 to 4 (≈ 0.289 to 9.25 µM) | < 0.125 |  |  | 
10 | O=CN(O)C[C@@H](CC1CCCC1)C(=O)N1CCCCN1C(=O)Nc1ccc(F)cc1 [Example 16, 2-[(2R)-Cyclopentylmethyl-3-(formylhydroxyamino)propionyl]-tetrahydropyridazine-1-Carboxylic acid (4-fluorophenyl)amide] | 4 to 8 (≈ 9.51 to 19 µM) | 0.125 to 4 (≈ 0.297 to 9.51 µM) | < 0.125 |  |  | 
11 | O=CN(O)C[C@@H](CC1CCCC1)C(=O)N1CCCCN1C(=O)Nc1ccc(F)cc1F [Example 17, 2-[(2R)-Cyclopentylmethyl-3-(formylhydroxyamino)-propionyl]-tetrahydropyridazine-1-Carboxylic acid (2,4-bis(fluoro)phenyl)amide] | 4 to 8 (≈ 9.12 to 18.2 µM) | 0.125 (≈ 0.285 µM) | < 0.125 |  |  | 
12 | O=CN(O)C[C@@H](CC1CCCC1)C(=O)N1CCCCN1C(=O)Nc1ccc2c(c1)OCCO2 [Example 19, 2-[(2R)-Cyclopentylmethyl-3-(formylhydroxyamino)-propionyl]-tetrahydropyridazine-1-Carboxylic acid (2,3,4a,8a-tetrahydrobenzo[1,4]dioxin-6-yl)amide] | 2 to 4 (≈ 4.34 to 8.69 µM) | 0.125 to 4 (≈ 0.271 to 8.69 µM) | < 0.125 |  |  | 
13 | COc1ccccc1NC(=O)N1CCCCN1C(=O)[C@H](CC1CCCC1)CN(O)C=O [Example 20, 2-[(2R)-Cyclopentylmethyl-3-(formylhydroxyamino)-propionyl]-tetrahydropyridazine-1-Carboxylic acid (2-methoxyphenyl)amide] | 4 to 8 (≈ 9.25 to 18.5 µM) | 0.5 to 2 (≈ 1.16 to 4.62 µM) | < 0.03 |  |  | 
14 | O=CN(O)C[C@@H](CC1CCCC1)C(=O)N1CCCCN1C(=O)N1CCC(Cc2ccccc2)CC1 [Example 22, N-{(2R)-Cyclopentylmethyl-3-[2-(4-benzylpiperidine-1-Carbonyl)-tetrahydropyridazin-1-yl]-3-oxo-propyl}-N-hydroxyformamide] | 4 to 16 (≈ 8.25 to 33 µM) |  | 2 (≈ 4.13 µM) |  |  | 
15 | O=CN(O)C[C@@H](CC1CCCC1)C(=O)N1CCCN1C(=O)c1ccoc1 [Example 37, N-{(2R)-Cyclopentylmethyl-3-[2-(furan-3-Carbonyl)-pyrazolidin-1-yl]-3-oxo-propyl}-N-hydroxyformamide] | 4 (≈ 11 µM) |  | 0.06 (≈ 0.165 µM) |  |  | 
16 | CN(C(=O)N1CCCN1C(=O)[C@H](CC1CCCC1)CN(O)C=O)c1ccccc1 [Example 43, 2-[(2R)-Cyclopentylmethyl-3-(formylhydroxyamino)-propionyl]-pyrazolidine-1-Carboxylic acid methylphenylamide] |  |  |  |  | 8 (≈ 19.9 µM) | 16 to 32
17 | O=C(C[C@@H](CC1CCCC1)C(=O)N1CCCCN1C(=O)Nc1ccccc1)NO [Example 45, 2-[(2R)-Cyclopentylmethyl-3-hydroxycarbamoylpropionyl]-tetrahydropyridazine-1-Carboxylic acid phenylamide] |  |  |  | 4 to 8 |  | 1 to 4

Second part, the molecule after the results:

Row | MIC [1] [µg/mL] | MIC [2] [µg/mL] | MIC [3] [µg/mL] | MIC or MIC range, S. pneumoniae [1] [µg/mL] | MIC or MIC range, M. catarrhalis [3] [µg/mL] | MIC or MIC range, H. Influenzae [2] [µg/mL] | Compound
18 | 0.5 to 2 (≈ 1.29 to 5.16 µM) | 1 to 4 (≈ 2.58 to 10.3 µM) | 0.125 (≈ 0.323 µM) |  |  |  | O=CN(O)C[C@@H](CC1CCCC1)C(=O)N1CCCCN1C(=O)c1ccccc1 [Example 3, N-{(2R)-Cyclopentylmethyl-3-[2-benzoyl-tetrahydropyridazin-1-yl]-3-oxo-propyl}-N-hydroxyformamide]
19 | 0.5 to 4 (≈ 1.1 to 8.78 µM) |  | 0.5 (≈ 1.1 µM) |  |  |  | O=CN(O)C[C@@H](CC1CCCC1)C(=O)N1CCCCN1C(=O)c1ccc(C(F)(F)F)cc1 [Example 4, N-{(2R)-Cyclopentylmethyl-3-[2-(4-trifluoromethylbenzoyl)-tetrahydropyridazin-1-yl]-3-oxo-propyl}-N-hydroxyformamide]
20 | 2 to 16 (≈ 5.15 to 41.2 µM) |  | 0.25 (≈ 0.644 µM) |  |  |  | O=CN(O)C[C@@H](CC1CCCC1)C(=O)N1CCCCN1C(=O)c1ccncc1 [Example 5, N-{(2R)-Cyclopentylmethyl-3-[2-(pyridine-4-Carbonyl)-tetrahydropyridazin-1-yl]-3-oxo-propyl}-N-hydroxyformamide]
21 | 0.5 to 4 (≈ 1.2 to 9.58 µM) |  | 0.5 (≈ 1.2 µM) |  |  |  | COc1ccc(C(=O)N2CCCCN2C(=O)[C@H](CC2CCCC2)CN(O)C=O)cc1 [Example 7, N-{(2R)-Cyclopentylmethyl-3-[2-(4-methoxybenzoyl)-tetrahydropyridazin-1-yl]-3-oxo-propyl}-N-hydroxyformamide]
22 | 0.5 to 4 (≈ 1.23 to 9.87 µM) | 0.5 to 2 (≈ 1.23 to 4.93 µM) | 0.5 (≈ 1.23 µM) |  |  |  | O=CN(O)C[C@@H](CC1CCCC1)C(=O)N1CCCCN1C(=O)c1ccc(F)cc1 [Example 10, N-{(2R)-Cyclopentylmethyl-3-[2-(4-fluorobenzoyl)-tetrahydropyridazin-1-yl]-3-oxo-propyl}-N-hydroxyformamide]
23 | 4 (≈ 8.5 µM) | 0.25 to 16 (≈ 0.531 to 34 µM) | < 0.125 |  |  |  | O=CN(O)C[C@@H](CC1CCCC1)C(=O)N1CCCCN1C(=O)Nc1ccc(C(F)(F)F)cc1 [Example 18, 2-[(2R)-Cyclopentylmethyl-3-(formylhydroxyamino)-propionyl]-tetrahydropyridazine-1-Carboxylic acid (4-trifluoromethylphenyl)amide]
24 | 16 to 32 (≈ 42.7 to 85.5 µM) |  | 0.125 (≈ 0.334 µM) |  |  |  | O=CN(O)C[C@@H](CC1CCCC1)C(=O)N1CCCN1C(=O)c1ccncc1 [Example 30, N-{(2R)-Cyclopentylmethyl-3-[2-(pyridine-4-Carbonyl)-pyrazolidin-1-yl]-3-oxo-propyl}-N-hydroxyformamide]
25 | 2 to 8 (≈ 4.38 to 17.5 µM) | 2 to 8 (≈ 4.38 to 17.5 µM) |  |  |  |  | O=CN(O)C[C@@H](CC1CCCC1)C(=O)N1CCCN1C(=O)Nc1ccc(C(F)(F)F)cc1 [Example 42, 2-[(2R)-Cyclopentylmethyl-3-(formylhydroxyamino)-propionyl]-pyrazolidine-1-Carboxylic acid (4-trifluoromethylphenyl)amide]
